The results in this text go back to patent publication US4487777A (priority 1981, dated 1984).

Assay [1] concerns Septoria apii. It counts as in vivo. The conditions noted are these: celery (Utah) plants; % disease reduction relative to untreated check plants; concentration not given.
Assay [2] has as its system Alternaria solani conidia. Put plainly: Tomato Early Blight control (tomato seedlings, sprayed then inoculated). It is filed as in vivo. The conditions noted are these: 288 h, 250-ppm solution, tomato (Bonny Best), relative to untreated check plants, read-out: % Control TEB (Tomato Early Blight). The protocol: Compounds of the invention were tested for the control of the Tomato Early Blight organism, Alternaria solani conidia. Tomato (variety Bonny Best) seedlings of 6 to 7 weeks old were used. The tomato plants were sprayed with a 250-ppm solution of the test compound in an acetone-and-water solution containing a small amount of a non-ionic emulsifier. The sprayed plants were inoculated one day later with the organism, placed in the environmental chamber and incubated at 66°-68° F. and 100% relative humidity for 24 hours. Following the incubation, the plants were maintained in the greenhouse for about 12 days. Percent disease control was based on the percent disease development on untreated check plants.

Assay [3] relates to Plasmapora viticola. Put plainly: Grape Downy Mildew control (detached grape leaves). It is filed as in vivo. The conditions noted are these: detached Vitis vinifera cultivar Emperor leaves; % disease reduction relative to untreated check plants; concentration not given. Here is the method: Grape Downy Mildew Control
The compounds of the invention were tested for the control of the grape downy mildew organism Plasmapora viticola. Detached leaves, between 70 and 85 mm in diameter, of 7-week-old Vitis vinifera cultivar Emperor grape seedlings were used as hosts. The leaves were sprayed with a solution of the test compound in acetone. The sprayed leaves were dried, inoculated with a spore suspension of the organism, placed in a humid environmental chamber and incubated at 66°-68° F. and about 100% relative humidity. After incubation for 2 days, the plants were then held in a greenhouse for seven to nine days. Afterwards, the amount of disease control was determined. The percent disease control provided by a given test compound was based on the percent disease reduction relative to untreated check plants.

The test system of assay [4] is Rhizoctonia solani. In words: Rhizoctonia mycelial inhibition test. It is filed as cell-based. The conditions noted are these: 500 ppm in acetone; 25° C., 24 hours; standard Difolatan; "0" assigned where greater than 1.6 micrograms/cm^2 required for 99% control. Here is the method:
Compounds of the present invention were evaluated for effectiveness against Rhizoctonia solani by means of a mycelial inhibition test. This test is designed to measure the fungitoxic activity of fungicidal chemicals in terms of their degree of inhibition of mycelial growth. Each compound to be tested was dissolved in acetone to 500 ppm concentration. Paper strips were infused with the particular mycelium growth (on this case Rhizoctonia solani) by covering the paper with a potato dextrose broth culture of mycelial suspension. The papers were then placed on potato dextrose agar plates and sprayed by means of a microsprayer with the fungicidal solution. The treated paper strips were incubated at 25° C. and data taken after 24 hours. Fungicidal activity is measured by the zone of inhibited mycelial growth from the center of the paper strip. The effectiveness of the compounds tested for fungicidal activity against Rhizoctonia solani is reported in Table III in terms of the [formula] In cases where greater than 1.6 micrograms/cm^2 were required for 99% control, a value of "0" was assigned to the test compound.

Assay [5] deals with Phytophthora infestans conidia. Put plainly: whole plant or invertebrate. The conditions noted are these: in Solanum lycopersicum, 168 h, read-out: % Control TLB (Tomato Late Blight). It is filed as in vivo.
The subject of assay [6] is Botrytis cinerea. Put plainly: Botrytis cinerea preventive control on harvested grape berries. It counts as in vivo. Conditions: grape berries (Emperor). Here is the method:
EXAMPLE 15-Botrytis Cinerea Control
Compound 1 of the invention was tested as a preventive fungicide against Botrytis cinerea on harvested mature grape berries (variety Emperor) by the following procedure: four grape bunches (trimmed to approximately 30 berries) were sprayed with a solution of the test compound in a solution of water, acetone and a small amount of a non-ionic emulsifier. The sprayed grapes were inoculated approximately one day later with 2- to 3-week-old culture of Botrytis cinerea grown on potato dextrose agar plates. The rate of disease incidence was determined 5-10 days after inoculation, when disease symptoms are fully evident on non-treated check grapes. Infection is determined by actual count of the number of infected berries. The percent disease control provided by a test compound was calculated from the percentage disease reduction based on the non-treated check grapes.

Turning to `COC(=O)CSCC1CC(=O)N(c2cc(Cl)cc(Cl)c2)C1=O` (centres unmarked) [Compound 6, N-3,5-dichlorophenyl-2-methoxycarbonylmethylthiomethylsuccinimide], the “% Control CLB (Celery Late Blight)” value in assay [1] worked out at 50%. For the same compound, the pest or weed control at 250 µg/mL in assay [2] worked out at 80%; in assay [5] it was 39%. Moreover, the “% Control Grape DM (Grape Downy Mildew)” value in assay [3] is reported as 18%. The “% Control Rhizoc (Rhizoctonia)” value in assay [4] is 0%.

On to `CCSC=C1CC(=O)N(c2cc(Cl)cc(Cl)c2)C1=O` [Compound 13, N-3,5-dichlorophenyl-2-ethylthiomethenylsuccinimide], for which the “% Control CLB (Celery Late Blight)” value in assay [1] is on record as 0%. The pest or weed control at 250 µg/mL was found to be 94% in assay [2] and 0% in assay [5]. For the same compound, the “% Control Grape DM (Grape Downy Mildew)” value in assay [3] came out at 35%. Besides, the “% Control Rhizoc (Rhizoctonia)” value in assay [4] was found to be 0%.

As to `COC(=O)CCS(=O)(=O)CC1CC(=O)N(c2cc(Cl)cc(Cl)c2)C1=O` (centres unmarked) [Compound 2], the “% Control CLB (Celery Late Blight)” value in assay [1] was found to be 45%. In addition, the pest or weed control at 250 µg/mL amounted to 96% in assay [2] and 23% in assay [5]. Further, in assay [3], the “% Control Grape DM (Grape Downy Mildew)” value was determined as 71%. In addition, the “% Control Rhizoc (Rhizoctonia)” value in assay [4] amounted to 0%.

On to `CCOC(=O)CSCC1CC(=O)N(c2cc(Cl)cc(Cl)c2)C1=O` (centres unmarked) [Compound 4, N-3,5-dichlorophenyl-2-ethoxycarbonylmethylthiomethylsuccinimide], for which the pest or weed control at 250 µg/mL in assay [2] stood at 0%; in assay [5], 84%. In addition, the “% Control Grape DM (Grape Downy Mildew)” value in assay [3] was 0%. Besides, in assay [4], the “% Control Rhizoc (Rhizoctonia)” value is 0%.

As to `C=CCS(=O)(=O)CC1CC(=O)N(c2cc(Cl)cc(Cl)c2)C1=O` (centres unmarked) [Compound 9, N-3,5-dichlorophenyl-2-allylsulfonylmethylsuccinimide], in assay [1], the “% Control CLB (Celery Late Blight)” value was found to be 50%. Besides, the values for the pest or weed control at 250 µg/mL in assay [2] and in assay [5] were 63% and 25%, respectively. Further, the “% Control Grape DM (Grape Downy Mildew)” value in assay [3] is on record as 57%. Also, the “% Control Rhizoc (Rhizoctonia)” value in assay [4] was 80%.

Turning to `CCOC(=O)CS(=O)(=O)CC1CC(=O)N(c2cc(Cl)cc(Cl)c2)C1=O` (centres unmarked) [Compound 3, N-3,5-dichlorophenyl-2-ethoxycarbonylmethylsulfonylmethylsuccinimide], the pest or weed control at 250 µg/mL in assay [2] was found to be 85%; in assay [5], 93%. Besides, the “% Control Grape DM (Grape Downy Mildew)” value in assay [3] was 23%. Besides, the “% Control Rhizoc (Rhizoctonia)” value in assay [4] is recorded as 78%.

Regarding `O=C1CC(C2SCCS2)C(=O)N1c1cc(Cl)cc(Cl)c1` (centres unmarked) [Compound 8, N-3,5-dichlorophenyl-2-formylsuccinimide-2-dithioketal], the “% Control CLB (Celery Late Blight)” value in assay [1] is given as 29%. In addition, the pest or weed control at 250 µg/mL in assay [2] was determined as 98%; in assay [5] it was 89%. Also, the “% Control Grape DM (Grape Downy Mildew)” value in assay [3] is reported as 18%. In addition, the “% Control Rhizoc (Rhizoctonia)” value in assay [4] is given as 30%.

`CC(C)(C)S(=O)(=O)C=C1CC(=O)N(c2cc(Cl)cc(Cl)c2)C1=O` [Compound 11, N-3,5-dichlorophenyl-2-t-butylsulfonylmethenylsuccinimide]: in assay [1], the “% Control CLB (Celery Late Blight)” value is 0%. Further, the figures for the pest or weed control at 250 µg/mL in assay [2] and in assay [5] were 0% and 6%, respectively. Besides, the “% Control Grape DM (Grape Downy Mildew)” value in assay [3] was 8%. The “% Control Rhizoc (Rhizoctonia)” value in assay [4] is listed as 0%.

With `COC(=O)CS(=O)(=O)CC1CC(=O)N(c2cc(Cl)cc(Cl)c2)C1=O` (centres unmarked) [Compound 1, N-3,5-dichlorophenyl-2-methoxycarbonylmethylsulfonylmethylsuccinimide], the “Botrytis Prevention (% Control)” value in assay [6] (40 ppm) is 58%; in assay [6] (100 ppm), 52%; in assay [6] (250 ppm) it was 58%. Also, the “% Control CLB (Celery Late Blight)” value in assay [1] is recorded as 57%. Besides, the pest or weed control at 250 µg/mL in assay [2] turned out to be 89%; in assay [5] it was 11%. In addition, the “% Control Grape DM (Grape Downy Mildew)” value in assay [3] was 81%. Also, the “% Control Rhizoc (Rhizoctonia)” value in assay [4] worked out at 0%.

In the case of `CC(C)(C)SC=C1CC(=O)N(c2cc(Cl)cc(Cl)c2)C1=O` [Compound 14, N-3,5-dichlorophenyl-2-t-butylthiomethenylsuccinimide], the “% Control CLB (Celery Late Blight)” value in assay [1] was found to be 57%. Also, the pest or weed control at 250 µg/mL in assay [2] was determined as 96%; in assay [5], 67%. The “% Control Grape DM (Grape Downy Mildew)” value in assay [3] stood at 42%. Moreover, in assay [4], the “% Control Rhizoc (Rhizoctonia)” value stood at 0%.

Consider `COC(=O)CCSCC1CC(=O)N(c2cc(Cl)cc(Cl)c2)C1=O` (centres unmarked) [Compound 7], for which, in assay [1], the “% Control CLB (Celery Late Blight)” value came to 0%. Moreover, the pest or weed control at 250 µg/mL amounted to 89% in assay [2] and 21% in assay [5]. Also, the “% Control Grape DM (Grape Downy Mildew)” value in assay [3] is recorded as 97%. In assay [4], the “% Control Rhizoc (Rhizoctonia)” value was 0%.

For `O=C1CC(=CSc2ccccc2)C(=O)N1c1cc(Cl)cc(Cl)c1` [Compound 12, N-3,5-dichlorophenyl-2-phenylthiomethenylsuccinimide], the “% Control CLB (Celery Late Blight)” value in assay [1] is given as 0%. Besides, the pest or weed control at 250 µg/mL amounted to 0% in assay [2] and 21% in assay [5]. In assay [3], the “% Control Grape DM (Grape Downy Mildew)” value stood at 0%. Further, in assay [4], the “% Control Rhizoc (Rhizoctonia)” value turned out to be 0%.

Take `CC(=O)SCC1CC(=O)N(c2cc(Cl)cc(Cl)c2)C1=O` (centres unmarked) [Compound 5, N-3,5-dichlorophenyl-2-thioacetylmethylsuccinimide]: in assay [1], the “% Control CLB (Celery Late Blight)” value is 0%. Also, the pest or weed control at 250 µg/mL was 57% in assay [2] and 0% in assay [5]. In addition, the “% Control Grape DM (Grape Downy Mildew)” value in assay [3] worked out at 23%. Also, in assay [4], the “% Control Rhizoc (Rhizoctonia)” value turned out to be 0%.

Turning to `C=C(Cl)CS(=O)(=O)CC1CC(=O)N(c2cc(Cl)cc(Cl)c2)C1=O` (centres unmarked) [Compound 10], in assay [1], the “% Control CLB (Celery Late Blight)” value was determined as 50%. Also, the pest or weed control at 250 µg/mL in assay [2] came to 83%; in assay [5], 29%. In addition, the “% Control Grape DM (Grape Downy Mildew)” value in assay [3] stood at 18%. For the same compound, the “% Control Rhizoc (Rhizoctonia)” value in assay [4] came to 91%.
